Molecules are shown by their SMILES. Where “and” joins values, the source holds several entries; their conditions need not be identical. Equal entries are not always repeated. Inconclusive results and toxic doses are left out.

For this assay, the system named is CD2F1 mice, L1210 leukemia ip, survival T/C. The experiment in a line: NCI In Vivo Anticancer Drug Screen. Data for tumor model L1210 Leukemia (intraperitoneal) in CD2F1 (CDF1) mice. Conditions: endpoint: mean survival time, higher = longer survival. The gist of the method: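 Transplantable tumor in mice; compound-treated vs vehicle-treated groups. Read-out = treated/control ratio of the measured endpoint.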

The mark [1] stands for this setting: dose: 100.0 mg/kg/injection, schedule: Q01DX001 (ip), vehicle: Klucel (hydroxypropylcellulose) (HPC).
Where [2] appears, read: dose: 200.0 mg/kg/injection, schedule: Q01DX001 (ip), vehicle: Klucel (hydroxypropylcellulose) (HPC).
Setting [3] is: dose: 400.0 mg/kg/injection, schedule: Q01DX001 (ip), vehicle: Klucel (hydroxypropylcellulose) (HPC).
The mark [4] stands for this setting: dose: 100.0 mg/kg/injection, schedule: Q04DX002 (ip), vehicle: saline with Tween-80.
The mark [5] stands for this setting: dose: 100.0 mg/kg/injection, schedule: Q04DX003 (ip), vehicle: saline with Tween-80.
The mark [6] stands for this setting: dose: 200.0 mg/kg/injection, schedule: Q04DX003 (ip), vehicle: saline with Tween-80.
[7] abbreviates: dose: 400.0 mg/kg/injection, schedule: Q04DX003 (ip), vehicle: saline with Tween-80.
The mark [8] stands for this setting: dose: 75.0 mg/kg/injection, schedule: Q01DX009 (ip), vehicle: saline with Tween-80.
[9] abbreviates: dose: 150.0 mg/kg/injection, schedule: Q01DX009 (ip), vehicle: saline with Tween-80.

For the compound `CC1(C)CC(NC2=NCCO2)CC(C)(C)N1`, the T/C is 94 % of control (dose: 6.25 mg/kg/injection, schedule: Q01DX001 (ip), vehicle: saline); 101 % of control (dose: 6.25 mg/kg/injection, schedule: Q01DX009 (ip), vehicle: saline); 97 % of control (dose: 12.5 mg/kg/injection, schedule: Q01DX001 (ip), vehicle: saline); 98 % of control (dose: 12.5 mg/kg/injection, schedule: Q01DX009 (ip), vehicle: saline); 90 % of control (dose: 25.0 mg/kg/injection, schedule: Q01DX001 (ip), vehicle: saline); 96 % of control (dose: 25.0 mg/kg/injection, schedule: Q01DX009 (ip), vehicle: saline).

On to `CS(=O)(=O)OC(C(Br)CBr)C(OS(C)(=O)=O)C(Br)CBr` (stereo unspecified), for which the T/C runs as follows: under setting [1], 87 % of control; under setting [2], 90 % of control; under setting [3], 88 % of control.

`O=c1[nH]cnc2c1nc(N1CCCC1)n2C1OC(CO)C(O)C1O` (stereo unspecified): the T/C (dose: 12.5 mg/kg/injection, schedule: Q01DX005 (ip), vehicle: distilled water + Tween-80) is 102 % of control; the T/C (dose: 25.0 mg/kg/injection, schedule: Q01DX005 (ip), vehicle: distilled water + Tween-80) is 98 % of control; the T/C (dose: 50.0 mg/kg/injection, schedule: Q01DX005 (ip), vehicle: distilled water + Tween-80) is 100 % of control; the T/C (dose: 100.0 mg/kg/injection, schedule: Q01DX005 (ip), vehicle: distilled water + Tween-80) is 102 % of control.

For `NCCC(O)C(=O)NC1CC(N)C(OC2OC(CN)C(O)C(O)C2N)C(OC2OC(CO)C(O)C2O)C1O` (stereo unspecified), the T/C reads like this: (dose: 50.0 mg/kg/injection, schedule: Q04DX002 (ip), vehicle: saline with Tween-80) 100 % of control; (dose: 50.0 mg/kg/injection, schedule: Q04DX002 (ip), vehicle: saline) 98 % of control; under setting [4], 100 % of control; (dose: 100.0 mg/kg/injection, schedule: Q04DX002 (ip), vehicle: saline) 98 % of control; (dose: 200.0 mg/kg/injection, schedule: Q04DX002 (ip), vehicle: saline with Tween-80) 96 % of control; (dose: 200.0 mg/kg/injection, schedule: Q04DX002 (ip), vehicle: saline) 95 % of control. The T/C runs as follows: (dose: 400.0 mg/kg/injection, schedule: Q04DX002 (ip), vehicle: saline with Tween-80) 96 % of control; (dose: 400.0 mg/kg/injection, schedule: Q04DX002 (ip), vehicle: saline) 98 % of control.

As for `CCCC1(CC(C)CC)C(=O)NC(=O)NC1=O` (stereo unspecified) (tested in a mixture with another compound), the T/C (dose: 75.0 mg/kg/injection, schedule: Q01DX001 (ip), vehicle: saline) is 93 % of control; the T/C (dose: 150.0 mg/kg/injection, schedule: Q01DX001 (ip), vehicle: saline) is 100 % of control; the T/C (dose: 300.0 mg/kg/injection, schedule: Q01DX001 (ip), vehicle: saline) is 104 % of control.

On to `COc1cc2cc(c1Cl)N(C)C(=O)/C=C/C1(C)OC1C(C)C1CC(O)(NC(=O)O1)C(OC)C=C/C=C(\C)C2` (stereo unspecified), for which the T/C (dose: 1.3 micrograms/kg/injection, schedule: Q01DX009 (ip), vehicle: saline + alcohol) is 94 % of control; the T/C (dose: 2.5 micrograms/kg/injection, schedule: Q01DX009 (ip), vehicle: saline + alcohol) is 94 % of control; the T/C (dose: 5.0 micrograms/kg/injection, schedule: Q01DX009 (ip), vehicle: saline + alcohol) is 97 % of control; the T/C (dose: 10.0 micrograms/kg/injection, schedule: Q01DX009 (ip), vehicle: saline + alcohol) was 97 % of control.

As to `CCCCCCCOc1ccc(N=[N+]([O-])c2ccc(OCCCCCCC)cc2)cc1`, the T/C under setting [5] is 95 % of control, the T/C under setting [6] is 91 % of control and the T/C under setting [7] is 89 % of control.

`Nc1ccc([N+](=O)[O-])cn1`: the T/C by setting is: under setting [8], 94 % of control; under setting [5], 107 % of control; under setting [9], 87 % of control; under setting [6], 103 % of control; (dose: 300.0 mg/kg/injection, schedule: Q01DX009 (ip), vehicle: saline with Tween-80) 93 % of control; under setting [7], 96 % of control.

In the case of `CCOC(=O)N1Cc2cc3ccccc3nc2C1`, the T/C is, setting by setting: under setting [8], 100 % of control; under setting [9], 101 % of control.

With `CN(C)C(=O)N1CC1`, the T/C reads like this: under setting [5], 98 % of control; under setting [6], 98 % of control; under setting [7], 106 % of control.

With `CCCCS(CCCC)=NS(=O)(=O)c1ccc(C)cc1`, the T/C runs as follows: (dose: 50.0 mg/kg/injection, schedule: Q01DX009 (ip), vehicle: Klucel (hydroxypropylcellulose) (HPC)) 90 % of control; (dose: 100.0 mg/kg/injection, schedule: Q01DX009 (ip), vehicle: Klucel (hydroxypropylcellulose) (HPC)) 94 % of control; (dose: 200.0 mg/kg/injection, schedule: Q01DX009 (ip), vehicle: Klucel (hydroxypropylcellulose) (HPC)) 90 % of control.

Consider `COc1cc(C=Nc2cccc(F)c2)ccc1N(CCCl)CCCl`, for which the T/C is, setting by setting: (dose: 16.0 mg/kg/injection, schedule: Q01DX015 (ip), vehicle: saline) 157 % of control; (dose: 25.0 mg/kg/injection, schedule: Q01DX001 (ip), vehicle: other) 121 % of control; (dose: 50.0 mg/kg/injection, schedule: Q01DX001 (ip), vehicle: other) 119 % of control.

Regarding `CCOC(=O)c1ccc(NC(=O)Nc2nncs2)cc1`, the T/C (dose: 6.25 mg/kg/injection, schedule: Q01DX009 (ip), vehicle: distilled water + Tween-80) is 101 % of control; the T/C (dose: 12.5 mg/kg/injection, schedule: Q01DX009 (ip), vehicle: distilled water + Tween-80) is 97 % of control and 103 % of control; the T/C (dose: 25.0 mg/kg/injection, schedule: Q01DX009 (ip), vehicle: distilled water + Tween-80) is 104 % of control and 107 % of control; the T/C (dose: 50.0 mg/kg/injection, schedule: Q01DX009 (ip), vehicle: distilled water + Tween-80) was 113 % of control and 115 % of control; the T/C (dose: 100.0 mg/kg/injection, schedule: Q01DX009 (ip), vehicle: distilled water + Tween-80) is 104 % of control and 112 % of control; the T/C (dose: 200.0 mg/kg/injection, schedule: Q01DX009 (ip), vehicle: distilled water + Tween-80) is 115 % of control.

Regarding `O=C(O)C(Br)C(Br)C(=O)O` (stereo unspecified), the T/C is 98 % of control (dose: 50.0 mg/kg/injection, schedule: Q01DX001 (ip), vehicle: carboxymethylcellulose (CMC)); 93 % of control (dose: 100.0 mg/kg/injection, schedule: Q01DX001 (ip), vehicle: carboxymethylcellulose (CMC)); 95 % of control (dose: 200.0 mg/kg/injection, schedule: Q01DX001 (ip), vehicle: carboxymethylcellulose (CMC)).

With `CC(C)(C)C(CCC(=O)O)CC(=O)O` (stereo unspecified), the T/C under setting [5] was 97 % of control, the T/C under setting [6] is 96 % of control and the T/C under setting [7] is 100 % of control.

For `CCCCCCCCCCCCCCCCCCC(C)C1CCCCC1` (stereo unspecified), the T/C was 104 % of control (dose: 100.0 mg/kg/injection, schedule: Q01DX001 (ip), vehicle: saline with Tween-80); 107 % of control (dose: 200.0 mg/kg/injection, schedule: Q01DX001 (ip), vehicle: saline with Tween-80); 101 % of control (dose: 400.0 mg/kg/injection, schedule: Q01DX001 (ip), vehicle: saline with Tween-80).

`CCCCCCCCCCCCCCCCCCN=C(N)N`: the T/C is 103 % of control under setting [1], 96 % of control under setting [2] and 88 % of control under setting [3].

As to `S=C(NCCNC(=S)[S][Sn]([c]1ccccc1)([c]1ccccc1)[c]1ccccc1)[S][Sn]([c]1ccccc1)([c]1ccccc1)[c]1ccccc1`, the T/C reads like this: (dose: 25.0 mg/kg/injection, schedule: Q04DX003 (ip), vehicle: saline with Tween-80) 88 % of control; (dose: 50.0 mg/kg/injection, schedule: Q04DX003 (ip), vehicle: saline with Tween-80) 93 % of control; under setting [5], 100 % of control.

As to `CC1C2CCC(C2)C1N` (stereo unspecified), the T/C was 99 % of control (dose: 50.0 mg/kg/injection, schedule: Q01DX009 (ip), vehicle: saline); 99 % of control (dose: 100.0 mg/kg/injection, schedule: Q01DX009 (ip), vehicle: saline); 99 % of control (dose: 200.0 mg/kg/injection, schedule: Q01DX009 (ip), vehicle: saline).

As to `C=CC(=O)c1ccccc1`, the T/C under setting [4] is 111 % of control.

For `O=C(c1ccccc1)C(O)(Cc1ccccc1)c1ccccc1` (stereo unspecified), the T/C under setting [5] is 96 % of control, the T/C under setting [6] was 102 % of control and the T/C under setting [7] was 97 % of control.

Source of the values: PubChem BioAssay AID256 (DTP/NCI, 2004).
